Experimental data as given in the supplement of paper PMC13380429.
± gives the standard deviation of the averaged measurements.

How the values were obtained:
Details in all cases: 72 h
U2OS [1] = assay: relative viability EC50 (midpoint between 100% and the lowest measured viability); higher = less toxic
Calu-3 [2] = assay: as above
Caco-2 [3] = assay: as above
Vero E6 [4] = assay: as above
HepG2 [5] = assay: as above
U2OS [6] = assay: cell viability relative to DMSO; higher = less toxic
Calu-3 [7] = assay: as above
Caco-2 [8] = assay: as above
Vero E6 [9] = assay: as above
HepG2 [10] = assay: as above
U2OS [11] = assay: drug sensitivity score (DSS) for viability; higher = more toxic; extreme values may be limits of the assay
Calu-3 [12] = assay: as above
Caco-2 [13] = assay: as above
Vero E6 [14] = assay: as above
HepG2 [15] = assay: as above

Row | SMILES | relative viability EC50 (U2OS [1]) [µM] | relative viability EC50 (Calu-3 [2]) [µM] | relative viability EC50 (Caco-2 [3]) [µM] | relative viability EC50 (Vero E6 [4]) [µM] | relative viability EC50 (HepG2 [5]) [µM] | cell viability (U2OS [6]; 1 nM) [%] | cell viability (U2OS [6]; 10 nM) [%] | cell viability (U2OS [6]; 100 nM) [%] | cell viability (U2OS [6]; 1000 nM) [%] | cell viability (U2OS [6]; 10000 nM) [%] | cell viability (Calu-3 [7]; 1 nM) [%] | cell viability (Calu-3 [7]; 10 nM) [%] | cell viability (Calu-3 [7]; 100 nM) [%] | cell viability (Calu-3 [7]; 1000 nM) [%] | cell viability (Calu-3 [7]; 10000 nM) [%] | cell viability (Caco-2 [8]; 1 nM) [%] | cell viability (Caco-2 [8]; 10 nM) [%] | cell viability (Caco-2 [8]; 100 nM) [%] | cell viability (Caco-2 [8]; 1000 nM) [%] | cell viability (Caco-2 [8]; 10000 nM) [%] | cell viability (Vero E6 [9]; 1 nM) [%] | cell viability (Vero E6 [9]; 10 nM) [%] | cell viability (Vero E6 [9]; 100 nM) [%] | cell viability (Vero E6 [9]; 1000 nM) [%] | cell viability (Vero E6 [9]; 10000 nM) [%] | cell viability (HepG2 [10]; 1 nM) [%] | cell viability (HepG2 [10]; 10 nM) [%] | cell viability (HepG2 [10]; 100 nM) [%] | cell viability (HepG2 [10]; 1000 nM) [%] | cell viability (HepG2 [10]; 10000 nM) [%] | drug sensitivity score (U2OS [11]) | drug sensitivity score (Calu-3 [12]) | drug sensitivity score (Caco-2 [13]) | drug sensitivity score (Vero E6 [14]) | drug sensitivity score (HepG2 [15])
1 | C[C@H]1NC(=O)NC1=O [5-methylhydantoin-(D)] | > 10 | > 10 | > 10 | > 10 | > 10 | 97.85 ± 0.49 | 100 ± 5 | 98.8 ± 5.1 | 98.2 ± 2.3 | 100 ± 2.4 | 95.5 ± 5.9 | 99.6 ± 5 | 94.5 ± 3.2 | 102 ± 3 | 101 ± 6.9 | 97.5 ± 3.3 | 94.4 ± 0.14 | 104 ± 2.3 | 95.3 ± 5.5 | 101 ± 2.6 | 97.1 ± 7.1 | 102 ± 4.5 | 96.4 ± 0.71 | 99.4 ± 0.57 | 100 ± 8 | 93 ± 4.9 | 100 ± 0.64 | 93.3 ± 5.9 | 98.1 ± 8.6 | 106 ± 2.8 | 0 | 0 | 0 | 0 | 0
2 | CCOC(=O)[C@]12CC1/C(=N\O)c1ccccc1O2 (some centres undefined) [CPCCOEt] | > 10 | > 10 | > 10 | > 10 | > 10 | 98.7 | 92.2 | 96.4 | 94.4 | 96.4 | 94.1 | 105 | 92.3 | 98.4 | 95.4 | 103 | 94.7 | 89.2 | 98.8 | 104 | 93.5 | 99.1 | 90.6 | 95.2 | 110 | 91.7 | 102 | 93.5 | 104 | 99.2 | 0 | 0 | 0 | 0 | 0
3 | O=C(O)c1cccnc1 [niacin] | > 10 | > 10 | > 10 | > 10 | > 10 | 93.8 | 98.2 | 95.3 | 97.1 | 102 | 86.8 | 103 | 98.9 | 109 | 99.2 | 91.6 | 96.7 | 94.2 | 103 | 103 | 99.4 | 98.7 | 96.3 | 91.1 | 101 | 113 | 105 | 114 | 97.9 | 106 | 0 | 0 | 0 | 0 | 0
4 | O=C(O)CCc1c(C(=O)O)[nH]c2cc(Cl)cc(Cl)c12 | > 10 | > 10 | > 10 | > 10 | > 10 | 96.2 | 103 | 95.9 | 99.7 | 97.5 | 91.6 | 96.3 | 93.2 | 97.5 | 106 | 92.8 | 104 | 90.9 | 102 | 99.4 | 99.9 | 102 | 102 | 94.3 | 102 | 102 | 92.5 | 94.2 | 107 | 105 | 0 | 0 | 0 | 0 | 0
5 | O=C(Nc1ccc([N+](=O)[O-])cc1Cl)c1cc(Cl)ccc1O [niclosamide] | – | > 10 | 2.54 | 3.34 | 3.01 | 101 | 104 | 97.2 | 103 | 68.9 | 106 | 98.4 | 92.2 | 91.3 | 86.2 | 101 | 102 | 95.3 | 93.7 | 17.6 | 101 | 99.7 | 102 | 102 | 20 | 104 | 99.4 | 109 | 98 | 9.9 | 1.2 | 0.6 | 5.6 | 4.2 | 5.3
6 | N=C(N)Nc1ccc(C(=O)Oc2ccc3cc(C(=N)N)ccc3c2)cc1 [nafamostat] | > 10 | > 10 | > 10 | > 10 | > 10 | 102 | 99.4 | 102 | 97.6 | 102 | 98.3 | 103 | 107 | 103 | 99.4 | 101 | 100 | 98.8 | 92.4 | 107 | 99.7 | 103 | 104 | 102 | 97 | 96.5 | 108 | 104 | 108 | 77.1 | 0 | 0 | 0 | 0 | 0.5
7 | CC(=O)Oc1cc2c(s1)CCN(C(C(=O)C1CC1)c1ccccc1F)C2 (centres undefined) [prasugrel] | > 10 | > 10 | > 10 | > 10 | > 10 | 104 | 98 | 102 | 97.9 | 98.8 | 101 | 103 | 102 | 97.3 | 106 | 102 | 101 | 93 | 105 | 94.1 | 100 | 93.6 | 96.2 | 96.2 | 93.2 | 105 | 95 | 106 | 103 | 93.3 | 0 | 0 | 0 | 0 | 0
